Test results reported in EP4578449A1, “PHARMACEUTICAL COMBINATION OF FAK INHIBITOR AND MICROTUBULE INHIBITOR AND USE THEREOF” (Inxmed (Nanjing) Co., Ltd., priority 2022, dated 2024).

Tests used:
Assay type in all cases: cell-based
[1] = system: mouse colon cancer CT26 cells; experiment: Docetaxel/Eribulin/Paclitaxel and Defactinib: microscopy and CRT/Annexin-V/PI flow cytometry; details: 48 hours, Defactinib 5 µM, Docetaxel 0.3 µM, Eribulin 0.3 µM, Paclitaxel 6 µM, alone or combined with Defactinib
Protocol: CT26 cells were cultured in monolayer in vitro under the following conditions: RPMI-1640 medium with 10% fetal bovine serum, 37°C, 5% CO2. Trypsin was used for routine digestion and passage treatment two to three times a week. When the cells were in the exponential growth phase and the adherent confluence reached 80%-90%, the cells were harvested and plated.
(§1) CT26 cells were digested with trypsin, and then the cells were collected and counted. Based on the counting results, the cells were diluted with the corresponding complete culture medium to a concentration of 50,000 cells per milliliter. Then the cells were plated in 12-well cell culture plates, with 2 ml of cell suspension per well, i.e., 100,000 cells.
(§2) After plating, the cells were cultured in a 37°C and 5% CO2 incubator.
After 24 hours of plating, the test compounds Docetaxel, Eribulin, Paclitaxel and Defactinib were added to different wells, respectively.
(§3) After 48 hours of drug action, the cells were photographed using a microscope, and then trypsinized and collected for flow cytometry staining.
The cells were washed twice with flow buffer (DPBS + 2% FBS). 0.5 µL of AF647 Anti-Calreticulin Antibody was added to each well, and mixed well. The cells were incubated at 4°C in the dark for 20 min. After washing once with flow buffer, 195 µL of Annexin-V-FITC binding solution was added, and the cells were gently mixed well. 5 µL of Annexin-V-FITC antibody was added. After further mixing, 10 µL of PI dye was added and mixed well. The cells were incubated at room temperature in the dark for 15 min. The cells were then subjected to flow cytometry.
(§4) After the assay, the cell positive rate was analyzed by Flowjo (V10) software.

SK-OV-3 cells = experiment: FAK silencing combined with Docetaxel, Calreticulin (ICD target) by flow cytometry; details: SK-OV-3 cells transfected with FAK siRNA 50 nM for 24 hours, then 1 µM Docetaxel 48 hours; vs control siRNA
Protocol: • 1. FAK silencing combined with Docetaxel promotes apoptosis of ovarian cancer cells […] The siRNA technology was used in the in vitro assay to reduce the expression level of FAK, and combined with Docetaxel for 48 hours; flow cytometry was used to detect apoptosis in control (DMSO) and FAK silenced cells • 2. FAK silencing combined with Docetaxel can effectively promote the production of ICD in ovarian cancer cells SK-OV-3 The siRNA technology was used in the in vitro assay to reduce the expression level of FAK, and combined with Docetaxel for 48 hours. Flow cytometry was used to detect the expression of Calreticulin, the main target of ICD.
Assay antibodies: recombinant Alexa Fluor® 647 fluorescent Anti-Calreticulin antibody (Abcam, ab196159), Annexin V apoptosis detection kit (Invitrogen, A35110).
FAK siRNA was provided by Gene Pharma, and the sequence is shown in the following table: • F: […]; • R: […]
• 1. […] After the transfection for 24 hours, the cells were treated with 0.3 µM or 1 µM of Docetaxel for 48 hours, respectively. The cells were stained using Annexin V kit and detected by flow cytometry. The apoptotic values were counted, compared with those of the control group, and plotted using Graphpad 8.0. […] The cells were fluorescent stained with Calreticulin antibody, and the staining results were analyzed by flow cytometry.

colon cancer CT26 cells = experiment: CCK8 cell viability assay, Docetaxel with or without IN10018; details: Mus musculus, 72 hours, Docetaxel alone
Protocol: CT26 cells were cultured with RPMI-1640 (Shanghai Basalmedia, catalog number: L210KJ, batch number: F210916) + 10% FBS (Gibco, catalog number: 10099-141c, batch number: 2158737cp), and passaged twice. When the cells were in good condition, they were placed in a 96-well plate, 3000 cells/well. After the cells were spread for 24 hours, the culture medium containing Docetaxel was added. 10 drug concentrations were set. The first concentration was 30 µM, which was serially diluted 3-fold, and the last one was the control, with the drug concentration of 0. Three compound wells were set for each drug concentration. At the same time, another group of cells was established with the same drug concentration as that in the above method. The difference was that: 5 µM IN10018 was added to each well, the drugs were mixed, and the plate was cultured in a 5% CO2 incubator at 37 °C for 72 hours.
After 72 hours of drug action, the cells were observed under a microscope. 10 µl of CCK8 detection reagent (Cellorlab, classification number: CX001M, batch number: 2571100) was added to each well, and the plate was incubated in a 5% CO2 incubator at 37 °C for 2-4 hours. Then the plate was read using microplate reader OD450 ([…]).

[2] = system: mouse breast cancer 4T1 cells; experiment: Docetaxel/Eribulin and Defactinib: microscopy and CRT/Annexin-V/PI flow cytometry; details: 48 hours, Defactinib 5 µM, Docetaxel 0.3 µM, Eribulin 0.1 µM, alone or combined with Defactinib
Protocol: 4T1 cells were cultured in a monolayer in vitro in RPMI-1640 medium with 10% fetal bovine serum in a 37 °C, 5% CO2 incubator. Trypsin was used for routine digestion and passage treatment two to three times a week. When the cells were in the exponential growth phase and the adherent confluence reached 80%-90%, the cells were harvested and plated.
as §1, with “4T1” for “CT26”
as §2
After 24 hours of plating, the test compounds Defactinib, Docetaxel and Eribulin were added to different wells, respectively.
as §3
The cells were washed twice with flow buffer (DPBS + 2% FBS). 0.5 µL of AF647 Anti-Calreticulin Antibody was added to each well, and mixed well. The cells were incubated at 4°C in the dark for 20 min. […]
as §4

CC(=O)O[C@@]12CO[C@@H]1C[C@H](O)[C@@]1(C)C(=O)[C@H](O)C3=C(C)[C@@H](OC(=O)[C@H](O)[C@@H](NC(=O)OC(C)(C)C)c4ccccc4)C[C@@](O)([C@@H](OC(=O)c4ccccc4)[C@H]21)C3(C)C [Docetaxel]
cell status (cell death) under a microscope [1]: obvious
release and exposure of Calreticulin (SK-OV-3 cells): significantly enhanced
IC50 (colon cancer CT26 cells): 190 nM
cell status (cell death) under a microscope [2]: obvious
